In patent US20160304547A1, “MACROLIDE COMPOUND” (PULIKE BIOLOGICAL ENGINEERING, INC, priority 2013, published 2016):
≈ marks a conversion by molar mass, not a printed value. Where two headings read alike, the source gives them in different places.

Assays:
[1] = test system: Staphylococcus aureus CVCC26003; test: MIC by mini broth dilution technique (in vitro susceptibility); format: cell-based
Experimental: (§1) in vitro tests of susceptibility of the compounds according to the present disclosure against bacterial strains commonly used in laboratories. In accordance with the Performance Standards for Antimicrobial Disk Susceptibility Tests: Approved Standard published by the US National Committee for Clinical Laboratory Standards, the antibactetial activities of compounds prepared according to examples 5 to 187 were tested. The MICs (minimum inhibitory concentration) of the medicaments prepared according to the examples on the following bacterial strains were measured through mini broth dilution technique. Staphylococcus aureus CVCC26003, Streptococcus equines CVCC556. Actinobacillus pleuropneumoniae CVCC262, Haemophilus parasuis, and Pasteurella multocida CVCC399, which were purchased from the Control Institute of Veterinary Bioproducts and Pharmaceuticals, China. Liquid culture medium: CAMHB. […] Solid culture medium: NINA prepared according to the specification of the final product. The strains were taken out of a regrigerator at −20° C. to be revived, and were spreaded by streaking on the solid culture medium with an inoculating loop. The inoculated culture medium was cultured at 35° C. in a constant temperature incubator for 20 h. Monoclonal antibodies were selected from a well-grown culture plate and streaked on the solid culture medium. The inoculated culture medium was cultured at 35° C. in the constant temperature incubator for 20 h. […] A 96-well plate was used, and 100 μl of DMSO was added into each of wells 2 to 11, and 200 μl of ready-prepared medicament solution was added into the 1st well, 100 μl of the medicament solution was extracted from the 1st well and added into the 2nd well. Double dilution was performed until the 11th well, thereby forming 11 gradients. In this case, compound of parent plate was prepared. 3 μl of double diluted medicament solution was extracted with a 12-channel pipettor and added into wells 1-11 of a new disposable 96-well culture plate. The 12th well thereof is a controll well. For each medicament, there are two adjacent rows which are parallel. The transferred compound plate was reserved for later use. […] The dilution ratio was recorded, and the bacterial liquid for the tests was diluted according to the recorded dilution ratio. Subsequently, the bacterial suspension and the liquid culture medium were diluted in the proportion of 1:200. The diluted solution was reserved for later use.

[2] = test system: Streptococcus pneumoniae CMCC 31203; test: In vivo antibacterial test, survival of infected BALB/c mice; details: for responders at 5 mg/kg: CMCC31203, sc, 168 h, read-out: Animal survival rate
[3] = test system: Streptococcus equines CVCC556; test: MIC by mini broth dilution technique (in vitro susceptibility); format: cell-based
Experimental: as §1, with “medium:” for “medium: CAMHB.”, “NINA prepared according to the specification of the final product.” left out

[4] = test system: Actinobacillus pleuropneumoniae CVCC262; test: as above; format: cell-based
Experimental: as §1, with “medium:” for “medium: CAMHB.”, “NINA prepared according to the specification of the final product.” left out

[5] = test system: Pasteurella multocida CVCC399; test: as above; format: cell-based
Experimental: as §1, with “medium:” for “medium: CAMHB.”, “NINA prepared according to the specification of the final product.” left out

Haemophilus parasuis = test: as above; format: cell-based; details: Glaesserella parasuis, read-out: MIC values Haemophilus parasuis
Experimental: as §1, with “medium:” for “medium: CAMHB.”, “NINA prepared according to the specification of the final product.” left out

[6] = Staphylococcus aureus CVCC26003, broth dilution, read-out: MIC values Staphylococcus aureus CVCC26003
[7] = BALB/c mice infected i.p. with Streptococcus pneumoniae, 5 mg per kg s.c. via neck for 3 consecutive days, deaths recorded until the seventh day
[8] = Streptococcus equines CVCC556, broth dilution, read-out: MIC values Streptococcus equines CVCC556
[9] = Actinobacillus pleuropneumoniae CVCC262, broth dilution, read-out: MIC values Actinobacillus pleuropneumoniae CVCC262
[10] = Pasteurella multocida CVCC399, broth dilution, read-out: MIC values Pasteurella multocida CVCC399
[11] = Haemophilus parasuis, broth dilution

Compound	MIC [1, 6]	responders at 5 mg/kg [2, 7]	MIC [3, 8]	MIC [4, 9]	MIC [5, 10]	MIC (Haemophilus parasuis; [11])	other results
CC[C@@H]1OC(=O)[C@H](C)[C@H](OC2C[C@@](C)(OC)[C@](O)(CNCCCOC)[C@H](C)O2)[C@@H](C)[C@@H](O[C@@H]2O[C@H](C)C[C@H](N(C)C)[C@H]2O)[C@](C)(O)C[C@@H](C)NC[C@@H](C)[C@H](O)[C@]1(C)O (stereo partly drawn) [syzx-66]	1 µg/mL (≈ 1.2 µM)	80%	0.5 µg/mL (≈ 0.598 µM)	8 µg/mL (≈ 9.57 µM)	≤ 0.25 µg/mL	≤ 0.25 µg/mL	
CC[C@@H]1OC(=O)[C@H](C)[C@H](OC2C[C@@](C)(OC)[C@](O)(CNCc3cccc(OC)c3)[C@H](C)O2)[C@@H](C)[C@@H](O[C@@H]2O[C@H](C)C[C@H](N(C)C)[C@H]2O)[C@](C)(O)C[C@@H](C)NC[C@@H](C)[C@H](O)[C@]1(C)O (stereo partly drawn) [syzx-35, (2R,3S,4R,5S,8R,10R,11R,12S,13S,14R)-13-[(2,6-dideoxy-3-C-methyl-3-O-methyl-4-C-[[3-methoxybenzyl-amino]-methyl]-α-L-ribopyranosyl)oxy]-2-ethyl-3,4,10-trihydroxy-3,5,8,10,12,14-hexamethyl-11-[[3,4,6-trideoxy-3-(dimethylamino)-β-D-xylo-hexopyranosy]oxy]-1-oxa-7-azacyclopentadecan-15-one]							MIC ([1]; Staphylococcus aureus, CVCC26003, read-out: MIC values Staphylococcus aureus CVCC26003): 0.25 µg/mL (≈ 0.283 µM); responders at 5 mg/kg ([2]; Streptococcus pneumoniae): 70%; MIC ([3]; Streptococcus, CVCC556, read-out: MIC values Streptococcus equines CVCC556): 0.5 µg/mL (≈ 0.566 µM); MIC ([4]; Actinobacillus pleuropneumoniae, CVCC262, read-out: MIC values Actinobacillus pleuropneumoniae CVCC262): 0.25 µg/mL (≈ 0.283 µM); MIC ([5]; Pasteurella multocida, CVCC399, read-out: MIC values Pasteurella multocida CVCC399): 1 µg/mL (≈ 1.13 µM); MIC (Haemophilus parasuis): 0.25 µg/mL (≈ 0.283 µM)
CC[C@@H]1OC(=O)[C@H](C)[C@H](OC2C[C@@](C)(OC)[C@](O)(CN(CC)CC)[C@H](C)O2)[C@@H](C)[C@@H](O[C@@H]2O[C@H](C)C[C@H](N(C)C)[C@H]2O)[C@](C)(O)C[C@@H](C)NC[C@@H](C)[C@H](O)[C@]1(C)O (stereo partly drawn) [syzx-3, (2R,3S,4R,5S,8R,10R,11R,12S,13S,14R)-13-[(2,6-dideoxy-3-C -methyl-3-O-methyl-4-C-[(diethylamino)methyl]-α-L-ribopyranosyl)oxy]-2-ethyl-3,4,10-trihydroxy-3,5,8,10,12,14-hexamethyl-11-[[3,4,6-trideoxy-3-(dimethylamino)-β-D-xylo-hexopyranosy]oxy]-1-oxa-7-azacyclopentadecan-15-one]	0.5 µg/mL (≈ 0.61 µM)	70%	0.125 µg/mL (≈ 0.152 µM)	1 µg/mL (≈ 1.22 µM)	0.125 µg/mL (≈ 0.152 µM)	0.125 µg/mL (≈ 0.152 µM)	
CC[C@@H]1OC(=O)[C@H](C)[C@H](OC2C[C@@](C)(OC)[C@](O)(CNCC3CC3)[C@H](C)O2)[C@@H](C)[C@@H](O[C@@H]2O[C@H](C)C[C@H](N(C)C)[C@H]2O)[C@](C)(O)C[C@@H](C)NC[C@@H](C)[C@H](O)[C@]1(C)O (stereo partly drawn) [syzx-17, (2R,3S,4R,5S,8R,10R,11R,12S,13S,14R)-13-[(2,6-dideoxy-3-C-methyl-3-O-methyl-4-C-[(cyclopropylmethylamino)methyl]-α-L-ribopyranosyl)oxy]-2-ethyl-3,4,10-trihydroxy-3,5,8,10,12,14-hexamethyl-11-[[3,4,6-trideoxy-3-(dimethylamino)-β-D-xylo-hexopyranosy]oxy]-1-oxa-7-azacyclopentadecan-15-one]	≤ 0.25 µg/mL	70%	≤ 0.25 µg/mL	2 µg/mL (≈ 2.44 µM)	0.25 µg/mL (≈ 0.306 µM)	≤ 0.25 µg/mL	
CC[C@@H]1OC(=O)[C@H](C)[C@H](OC2C[C@@](C)(OC)[C@](O)(CN3CCCCC3)[C@H](C)O2)[C@@H](C)[C@@H](O[C@@H]2O[C@H](C)C[C@H](N(C)C)[C@H]2O)[C@](C)(O)C[C@@H](C)NC[C@@H](C)[C@H](O)[C@]1(C)O (stereo partly drawn) [syzx-15, (2R,3S,4R,5S,8R,10R,11R,12S,13S,14R)-13-[(2,6-dideoxy-3-C-methyl-3-O-methyl-4-C-[piperidinylmethyl]-α-L-ribopyranosyl)oxy]-2-ethyl-3,4,10-trihydroxy-3,5,8,10,12,14-hexamethyl-11-[[3,4,6-trideoxy-3-(dimethylamino)-β-D-xylo-hexopyranosy]oxy]-1-oxa-7-azacyclopentadecan-15-one]	≤ 0.25 µg/mL	70%	≤ 0.25 µg/mL	0.5 µg/mL (≈ 0.601 µM)	≤ 0.25 µg/mL	≤ 0.25 µg/mL	
CC[C@@H]1OC(=O)[C@H](C)[C@H](OC2C[C@@](C)(OC)[C@](O)(CNCCOC)[C@H](C)O2)[C@@H](C)[C@@H](O[C@@H]2O[C@H](C)C[C@H](N(C)C)[C@H]2O)[C@](C)(O)C[C@@H](C)NC[C@@H](C)[C@H](O)[C@]1(C)O (stereo partly drawn) [syzx-25, (2R,3S,4R,5S,8R,10R,11R,12S,13S,14R)-13-[(2,6-dideoxy-3-C-methyl-3-O-methyl-4-C-[(2-methoxyethyl)amino-methyl]-α-L-ribopyranosyl)oxy]-2-ethyl-3,4,10-trihydroxy-3,5,8,10,12,14-hexamethyl-11-[[3,4,6-trideoxy-3-(dimethylamino)-β-D-xylo-hexopyranosy]oxy]-1-oxa-7-azacyclopentadecan-15-one]	≤ 0.25 µg/mL		≤ 0.25 µg/mL	16 µg/mL (≈ 19.5 µM)	≤ 0.25 µg/mL	≤ 0.25 µg/mL	
CCCNC[C@]1(O)[C@H](C)O[C@@H](O[C@H]2[C@H](C)[C@@H](O[C@@H]3O[C@H](C)C[C@H](N(C)C)[C@H]3O)[C@](C)(O)C[C@@H](C)N(CCC)C[C@H](C)[C@@H](O)[C@](C)(O)[C@@H](CC)OC(=O)[C@@H]2C)C[C@@]1(C)OC [syzx-101, (2R,3S,4R,5S,8R,10R,11R,12S,13S,14R)-13-[(2,6-dideoxy-3-C-methyl-3-O-methyl-4-C-[(n-propyl-amino)methyl]-α-L-ribopyranosyl)oxy]-2-ethyl-3,4,10-trihydroxy-3,5,8,10,12,14-hexamethyl-7-propyl-11-[[3,4,6-trideoxy-3-(dimethylamino)-β-D-xylo-hexopyranosy]oxy]-1-oxa-7-azacyclopentadecan-15-one]							Animal survival rate [2, 7]: 90% (9/10)
CC[C@@H]1OC(=O)[C@H](C)[C@H](OC2C[C@@](C)(OC)[C@](O)(CNCCOC)[C@H](C)O2)[C@@H](C)[C@@H](O[C@@H]2O[C@H](C)C[C@H](N(C)C)[C@H]2O)[C@](C)(O)C[C@@H](C)NC[C@@H](C)[C@H](O)[C@]1(C)O (stereo partly drawn) [syzx-58]		80%					MIC values Actinobacillus pleuropneumoniae CVCC262 ([4]; Actinobacillus pleuropneumoniae CVCC262, broth dilution): 16 ug/mi
CCCNC[C@]1(O)[C@H](C)O[C@@H](O[C@H]2[C@H](C)[C@@H](O[C@@H]3O[C@H](C)C[C@H](N(C)C)[C@H]3O)[C@](C)(O)C[C@@H](C)NC[C@H](C)[C@@H](O)[C@](C)(O)[C@@H](CC)OC(=O)[C@@H]2C)C[C@@]1(C)OC [syzx-1]							Animal survival rate [2, 7]: 80% (8/10)
